The source of these data is article PMC5587574, “Carbonyl reductase 1 catalyzes 20β-reduction of glucocorticoids, modulating receptor activation and metabolic complications of obesity” (Scientific Reports, 2017).

The assay concerns the target T1, Carbonyl reductase 1 (CBR1) (Homo sapiens, UniProt P16152).
T1 construct: recombinant human CBR1
T1 sequence (P16152 2-277): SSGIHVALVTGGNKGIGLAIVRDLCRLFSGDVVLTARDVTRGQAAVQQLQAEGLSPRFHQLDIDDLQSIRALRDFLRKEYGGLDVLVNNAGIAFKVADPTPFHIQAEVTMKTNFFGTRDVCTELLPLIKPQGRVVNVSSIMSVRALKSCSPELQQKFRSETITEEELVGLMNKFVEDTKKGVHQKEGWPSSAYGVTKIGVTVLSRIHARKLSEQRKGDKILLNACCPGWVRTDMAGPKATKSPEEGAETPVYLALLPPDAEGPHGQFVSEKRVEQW
The experiment in a line: conversion by recombinant enzyme, LC-MS/MS. It is filed as biochemical.

SMILES strings stand for the structures.

As to `C[C@]12CCC(=O)C=C1CC[C@@H]1[C@@H]2[C@@H](O)C[C@@]2(C)[C@H]1CC[C@]2(O)C(=O)CO` [F, cortisol], the “conversion by recombinant enzyme, LC-MS/MS” value is given as 1.2 ± 0.4 ng/mg CBR1 protein per minute.
